From patent US20170105647A1, “SYSTEMS AND METHODS FOR IDENTIFYING NEUROBIOLOGICAL BIOMARKERS USING EEG” (Children's Medical Center Corporation, priority 2014, published 2017)
“And” between values parts separate entries of the source, which are not always exact repeats. Equal entries are not always repeated.

Assays:
Type in all cases: in vivo, human
[1] = system: children with regressive autism (R-ASD), STAR group; test: Subjective evaluation of EEG abnormality, change from first to second study
From the text: Subjective Evaluation of EEG Abnormality: All first and second EEG studies were visually reassessed by a pediatric electroencephalographer blinded to subject history and group identity. All EEGs were reviewed in randomly selected order with respect to group and study order. Each EEG was scored as showing in ascending order of abnormality (if present): paroxysmal sharp theta, sharp waves, and spike or spike wave discharges. After this “blinded” estimation was completed, EEG results were sorted into first and second EEG study order, without group identity; subsequently the electroencephalographer compared each subject's two sequential EEGs and classified their scores as showing “worsening”, “no change”, or “improvement” between the first and second study.

[2] = system: children with regressive autism (R-ASD), STAR group; test: Clinical Language Status Questionnaire (CLSQ) language assessment
From the text: Language Assessment, STAR Group: STAR group subjects were followed by their child neurologists using a clinical language assessment, referred to as the “Clinical Language Status Questionnaire (CLSQ)” which was developed in-house well prior to the current study. It is as yet unpublished. The assessment was designed to assist pediatric neurologists involved in the pharmacological treatment of neurological disorders, in estimating language progress or lack thereof—from a child's parent(s)' report and the clinician's direct assessment at the time of a clinical visit. It involves evaluation of both the child's current best expressive and receptive language performance. In the current study, documentation of lack of response improvement or plateau, along with assessment of medical complication(s), constituted the primary evidence used for treatment discontinuation. […] The term “Appears normal” (Table 1) was defined as the clinician's and family's report of normal, age-appropriate speech. None of the children in this study received this score. “Appears nearly normal” was defined as context and age appropriate speech with evidence of mispronunciations, poor or odd word choice, unusual fluency or unusually sparseness, unusual grammatical errors such as errors in tense, pronoun gender match and/or pluralization, and/or requirement of adult speech simplification in order to assure comprehension relative to age expectancy. The difference between “short meaningful 1-2 word phrases” and “meaningful 3+ word phrases” is self-explanatory. Although many well developed language tests exist, as documented by the American Speech-Language-Hearing Association (www.asha.org/assessments.aspx), most tend to be detailed yet too coarsely grained to capture this population's limited language range. They are also typically too time-consuming for repeated administration by neurologists during recurring, clinical check-in visits. In contrast, the CLSQ may be completed in less than ten minutes. An additional advantage of the CLSQ for the current study was its comprehensiveness in capturing the full—while limited—range of language change observed in this patient population. Parents are shown short phrases (without the numerical scores) and asked to identify their child's current relevant expressive and receptive status. The neurologist stands by to clarify, assist, and help resolve two caregivers' divergent opinions. Neurologists using the CLSQ are sensitive to the language performance definitions in question. The study subjects' CLSQ score assignments occurred without prior knowledge of the current study.

[3] = system: children with regressive autism (R-ASD), STAR group; test: 4 Hz frequency modulated auditory evoked response (FMAER), before vs after steroid treatment; details: for Mean Diff. (mean of pre to post difference of 4 Hz FMAER spectral power): STAR group n = 20, oral 2 mg/kg/day
From the text: In this example, subjects with regressive autism were utilized to determine whether application of a corticosteroid would improve language function and show an improved 4 Hz FMAER. […] A pharmacologically untreated clinical convenience sample of children with ASD served as controls.
Steroid Treated Autism with Regression (STAR): The target group of study subjects was limited to children aged 3-5 years old, diagnosed as having autism with a historically documented period of regression at onset. Regression was defined as the loss of age appropriate language, communication, cognitive ability, and behavior determined by the referring physician and confirmed by the treating neurologist. Patients with a slowly developing plateau or a very slow regression over a prolonged period of time, as opposed to an abrupt regression, were not included in the STAR group.
Steroid Treatment STAR Patients: Oral prednisolone (Prelone™ or Orapred™) was administered by the parents on a daily basis at 2 mg/kg/day. Dosage was occasionally down-adjusted on the basis of minor complications.
All subjects' electrophysiological data utilized in this study were gathered from 30 scalp channels via gold cup electrodes applied with collodion after careful measurement. A 31st channel carried the FMAER trial marker. A 32nd channel carried eye movement and blink artifact information. Data were digitized at 256 Hz after amplification by a Cardionics™ 32 channel EEG amplifier (Cardionics Inc. 910 Baystar Blvd, Webster, Tex. 77598 USA) set to 1-100 Hz pass band. The 30 EEG scalp channels used included the following: FP1, FP2, F7, F3, FZ, F4, F8, FC5, FC1, FC2, FC6, T7, C3, CZ, C4, T8, CP5, CP1, CP2, CP6, P7, P3, PZ, P4, P8, O1, OZ, O2, TP9, and TP10 [28]. Data for the FMAER were gathered over 5-20 minutes with additional time allowed for rest breaks as indicated. The patient and a parent, when behaviorally indicated, were together within view of the technologist through a one-way mirror window in a sound-shielded room, adjacent to the recording equipment. Off-line, the EEG data and accompanying trial markers were visually evaluated and epochs containing excessive eye-blink, muscle and movement artifact were marked for removal from subsequent analysis. All 30 channel data were visually inspected for EEG abnormalities and for creating the common average reference. For the current study, FMAER analysis was restricted to 14 active scalp electrodes: F7, F8, T7, T8, P7, P8, TP9, TP10, F3, F4, C3, C4, P3, and P4.
Frequency Modulated Auditory Evoked Response (FMAER): Language comprehension requires decoding of rapidly changing speech streams; detection of FM within speech has been hypothesized as essential for accurate phoneme detection and word comprehension. The FMAER was developed as a steady-state EP to assess the brain's response to rapid changes in the frequency modulation (FM) of an applied auditory stimulus in extension of and based upon the pioneering work of Green, Stefanatos and others. […] Midline frontal electrodes (FZ, FC1, FC2) usually manifest bilateral overlapping source dipole projection. […] The FMAER may be normal, or as in pathology, of low amplitude, distorted, or absent. In rare cases of pathology the FMAER source location may be outside the usual STG location and/or the source dipole may point in unexpected directions..
As previously detailed, the FMAER was formed from a carrier sine wave at 1000 Hz frequency modulated by a slower 10 Hz sine wave causing the frequency of the carrier wave to shift (“deviate”) between […] at the 10 Hz rate, producing a warbling tone. The 10 Hz sine wave was then amplitude modulated by a slower 4 Hz sine wave such that the warbling (FM modulation) was sinusoidally turned on and off (AM modulated) at the 4 Hz rate. This process caused the 10 Hz “warbling” of the 1000 Hz sine wave carrier to be sinusoidally turned fully on and off (100% modulation) at 4 Hz. […]

[4] = system: children with regressive autism (R-ASD), STAR group; test: DSM-IV criteria for Autistic Disorder, scaled behavioral score
From the text: Behavioral Assessment: The DSM-IV criteria for Autistic Disorder (299.0), aside from employment for diagnosis, were scaled in terms of severity for each STAR group child and the sum of the scaled scores was assigned as behavioral score. The direction of scaling was defined such that the higher the score was, the more severe the behavioral manifestations of ASD were. The symptom items and scaling are described in Table 2. […] Summed scaled item scores were assigned in order to quantify behavioral change in analogy to language change. For the current study scores were selected for the office visit nearest to the first and the second EEG/FMAER studies respectively. Scorers had no knowledge of the current study's goals or design, the future group status of subjects, or the subjects' FMAER results. The NSA group subjects lacked the DSM-IV based behavior scores.

[5] = STAR group n = 20, blinded visual EEG rating
[6] = STAR group n = 20, pre- to post-treatment, CLSQ scale 0-10

## C[C@]12C=CC(=O)C=C1CC[C@@H]1[C@@H]2[C@@H](O)C[C@@]2(C)[C@H]1CC[C@]2(O)C(=O)CO [prednisolone]
[1]; [5]
  EEG change Time 1 to Time 2: number of subjects Improved: 3
  EEG change Time 1 to Time 2: number of subjects No Change: 10
  EEG change Time 1 to Time 2: number of subjects Worse: 7
[1]; STAR vs NSA, Fisher's exact test n.s.
  Steroid effect on EEG abnormalities by visual inspection: little evidence for a physiologically meaningful steroid effect on EEG
[2]; STAR group n = 20
  Expressive Language change Time 1 to Time 2: number of subjects Better: 17
  Expressive Language change Time 1 to Time 2: number of subjects NoDiff: 2
  Expressive Language change Time 1 to Time 2: number of subjects Worse: 1
  Receptive Language change Time 1 to Time 2: number of subjects Better: 17
  Receptive Language change Time 1 to Time 2: number of subjects NoDiff: 3
  Receptive Language change Time 1 to Time 2: number of subjects Worse: 0
[2]; [6]
  Mean Diff. of CLSQ score, Time 1 to Time 2, Expressive language: 4.10
  Mean Diff. of CLSQ score, Time 1 to Time 2, Receptive language: 4.80
[2]; receptive and expressive, study 1 to study 2
  STAR group subjects showing improvement in language ratings: 17/20
[3]; STAR group, matched-paired t-test, 14 electrodes
  Electrode measurements of the FMAER 4 Hz response with significant change before vs after steroid therapy: nine of 14 and 9 of 14
[3]; all STAR subjects, FFT of FMAER
  FMAER response distortion (spectral spread) after steroid treatment: reduction of distortion
[3]; electrode C3
  Mean Diff. (mean of pre to post difference of 4 Hz FMAER spectral power): 24.15 μV^2/Hz
[3]; electrode C4
  Mean Diff. (mean of pre to post difference of 4 Hz FMAER spectral power): 22.66 μV^2/Hz
[3]; electrode F3, mean 9.125 months
  Mean Diff. (mean of pre to post difference of 4 Hz FMAER spectral power): 47.18 μV^2/Hz
[3]; electrode F4
  Mean Diff. (mean of pre to post difference of 4 Hz FMAER spectral power): 64.31 μV^2/Hz
[3]; electrode F7
  Mean Diff. (mean of pre to post difference of 4 Hz FMAER spectral power): 3.38 μV^2/Hz
[3]; electrode F8
  Mean Diff. (mean of pre to post difference of 4 Hz FMAER spectral power): 18.47 μV^2/Hz
[3]; electrode P3
  Mean Diff. (mean of pre to post difference of 4 Hz FMAER spectral power): 10.49 μV^2/Hz
[3]; electrode P4
  Mean Diff. (mean of pre to post difference of 4 Hz FMAER spectral power): 10.52 μV^2/Hz
[3]; electrode P7
  Mean Diff. (mean of pre to post difference of 4 Hz FMAER spectral power): 65.08 μV^2/Hz
[3]; electrode P8
  Mean Diff. (mean of pre to post difference of 4 Hz FMAER spectral power): 77.83 μV^2/Hz
[3]; electrode T7
  Mean Diff. (mean of pre to post difference of 4 Hz FMAER spectral power): 15.49 μV^2/Hz
[3]; electrode T8
  Mean Diff. (mean of pre to post difference of 4 Hz FMAER spectral power): 30.60 μV^2/Hz
[3]; electrode TP9
  Mean Diff. (mean of pre to post difference of 4 Hz FMAER spectral power): 56.91 μV^2/Hz
[3]; electrode TP10
  Mean Diff. (mean of pre to post difference of 4 Hz FMAER spectral power): 83.49 μV^2/Hz
[4]; After treatment
  Average DSM-IV Score (mean of 14 scored items, 0-3 each): 0.9857
[4]; Before treatment (baseline)
  Average DSM-IV Score (mean of 14 scored items, 0-3 each): 2.0677
[4]; p≦0.00001
  Scaled DSM-IV symptom summary scores after steroid treatment: highly significant improvement
